Results from article PMC9783573, “Introduction of a SiFA Moiety into the D-Glutamate Chain of DOTA-PP-F11N Results in Radiohybrid-Based CCK-2R-Targeted Compounds with Improved Pharmacokinetics In Vivo” (Pharmaceuticals, 2022).
Where two headings read alike, the source gives them in different places. Non-standard residues stand in square brackets, D forms with d. Residues, ends and D or L forms follow the SMILES beside them. *: point of attachment. X1 = O=C(O)CN1CCN(CC(=O)O)CCN([C@H](CCC(=O)*)C(=O)O)CCN(CC(=O)O)CC1; Benzoyl(4-SiFtBu2) = CC(C)(C)[Si](F)(c1ccc(C(=O)*)cc1)C(C)(C)C; Nle = CCCC[C@H](N)C(=O)O; dDap = NC[C@@H](N)C(=O)O

What was measured:
[1] = Biodistribution at 24 h p.i. in AR42J tumour-bearing CB17-SCID mice; type: in vivo; conditions: mouse, in vivo, 100 pmol, n = 4, mean ± SD
Method: Figure 4 Biodistribution of the reference compound, [^177Lu]Lu-DOTA-PP-F11N (blue), the α-linked [^177Lu]Lu-(R)-DOTAGA-rhCCK-9 (red) and the γ-linked [^177Lu]Lu-(R)-DOTAGA-rhCCK-16 (green) in selected organs (%ID/g) at 24 h p.i. in AR42J tumour-bearing CB17-SCID mice (100 pmol each, n = 4). Data is expressed as mean ± SD.
All animal experiments were conducted in accordance with general animal welfare regulations in Germany (German animal protection act, in the edition of the announcement, dated 18 May 2006, as amended by Article 280 of 19 June 2020, approval no. ROB-55.2-1-2532.Vet_02-18-109 by the General Administration of Upper Bavaria) and the institutional guidelines for the care and use of animals. CB17-SCID mice of both genders and aged 2–12 months (Charles River Laboratories International Inc., Sulzfeld, Germany) were allowed to acclimate at the in-house animal facility for at least one week prior to tumour cell inoculation was performed. Tumour xenografts were generated using AR42J cells (5.0 × 10^6 cells per 200 µL) suspended in a 1/1 mixture (v/v) of RPMI 1640 medium and Cultrex® Basement Membrane Matrix Type 3 (Trevigen, Gaithersburg, MD, USA). This suspension was inoculated subcutaneously onto the right shoulder and animals were used when tumour volume was >100 mm^3 (1–2 week after inoculation). Exclusion criteria for animals from an experiment were either weight loss higher than 20%, a tumour size above 1500 mm^3, an ulceration of the tumour, respiratory distress or a change of behaviour. None of these criteria applied to any animal from the experiment. Neither randomisation nor blinding was applied in the allocation of the experiments. Health status is SPF according to FELASA.
For biodistribution studies, the ^177Lu-labelled compound (approx. 2–3 MBq, 100 pmol) was injected into a lateral tail vein (n = 4) of anesthetised (2% isoflurane) AR42J tumour-bearing CB-17-SCID mice. At 24 h post-injection (p.i.), the mice were euthanised. Thereafter, the pertinent organs were removed, weighed and measured using a γ-counter.

CCK-2R = target: T1, CCK-2R (Rattus norvegicus, UniProt P30553); experiment: Competitive binding (IC50) on AR42J cells with [177Lu]Lu-DOTA-PP-F11N as radiolabelled reference; conditions: natLu-labelled peptide, AR42J cells 2.0 × 10^5/well, 3 h, 37 °C, [177Lu]Lu-DOTA-PP-F11N 0.3 pmol/well
T1 construct: CCK-2R expressing rat pancreatic cancer cells AR42J (CLS GmbH, Eppelheim,; host or cells: AR42J rat pancreatic cancer cells
T1 sequence (P30553 1-452): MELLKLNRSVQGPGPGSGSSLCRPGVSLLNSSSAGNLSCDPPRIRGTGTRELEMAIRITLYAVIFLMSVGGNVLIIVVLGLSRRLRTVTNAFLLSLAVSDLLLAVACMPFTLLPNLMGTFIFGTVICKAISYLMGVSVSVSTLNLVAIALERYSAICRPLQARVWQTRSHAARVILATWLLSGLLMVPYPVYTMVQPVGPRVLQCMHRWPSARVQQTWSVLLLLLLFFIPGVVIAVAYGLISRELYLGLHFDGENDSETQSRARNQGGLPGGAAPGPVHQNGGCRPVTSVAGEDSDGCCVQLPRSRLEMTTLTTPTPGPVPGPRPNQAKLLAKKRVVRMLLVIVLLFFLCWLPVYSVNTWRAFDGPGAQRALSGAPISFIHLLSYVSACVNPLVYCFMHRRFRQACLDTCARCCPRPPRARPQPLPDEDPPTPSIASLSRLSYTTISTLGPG
Method: Detailed description of all cell-based experiments is provided in the Supplementary Materials. In brief, competitive binding studies were conducted on AR42J cells (2.0 × 10^5 cells per 1 mL/well) via incubation at 37 °C for 3 h using [^177Lu]Lu-DOTA-PP-F11N (0.3 pmol) as a radiolabelled reference (n = 3).
Cell Culture. CCK-2R expressing rat pancreatic cancer cells AR42J (CLS GmbH, Eppelheim, Germany) were cultivated in monolayers in CELLSTAR ® cell culture flasks acquired from Greiner Bio-One GmbH (Frickenhausen, Germany) at 37 °C in a humidified atmosphere (5% CO2) using a HERAcell 150i-Incubator (Thermo Fisher Scientific Inc., Waltham, United States). As nutrient medium RPMI 1640 medium, supplemented with 5 mM L-Gln 5 mL non-essential amino acids (100×) and 10% FCS, was used. Furthermore, a Dulbecco’s PBS solution with 0.1% EDTA (v/v) was applied to detach the cells for cell passaging. The detached cells were counted using a Neubauer hemocytometer ( Paul Marienfeld, Lauda-Königshofen, Germany). In addition, all operations under sterile conditions were accomplished using a MSC-Advantage safety workbench (Thermo Fisher Scientific Inc., Waltham, United States).
Determination of IC50. AR42J cells (2.0 × 10^5 cells/well) were seeded into 24-well plates 24 ± 2 h prior to testing, using 1 mL of nutrient medium (RPMI 1640, 5 mM L-Gln, 5 mL non-essential amino acids (100×), 10% FCS). Cells were incubated at 37 °C in a humidified atmosphere (5% CO2).
After removal of the medium, each well was washed with 500 μL PBS. For the cell-based assay, 200 μL of nutrient medium (+5% BSA), [177Lu]Lu-DOTA-PP-F11N (25 μL, 0.3 pmol) as a radiolabeled reference and 25 μL of the peptide of interest in increasing concentrations (10−10 to 10−4 M) in triplicate were added to the cells. Thereafter, the assay was incubated for 3 h at 37 °C and thereafter, the supernatant was collected. The cells were washed with 300 μL PBS and the collected supernatant fractions were unified.
After lysis of the cells with NaOH (300 μL, 1 N) for 15 min, the respective wells were washed with NaOH (300 μL, 1 N) and both fractions were unified. The radioactivity of both, the supernatant and the lysed fractions was quantified using a γ-counter (PerkinElmer Inc., Waltham, United States ). The obtained data were evaluated via the GraphPad PRISM software ( GraphPad Software Inc., La Jolla, United States), which calculates the halfmaximal inhibitory concentration ( IC50) of the peptides. […]

[2] = AR42J tumour, read-out: Biodistribution, Tumour
[3] = read-out: Biodistribution, Adrenal
[4] = read-out: Biodistribution, Blood
[5] = read-out: Biodistribution, Bone
[6] = read-out: Biodistribution, Heart
[7] = read-out: Biodistribution, Intestine
[8] = read-out: Biodistribution, Kidney
[9] = read-out: Biodistribution, Liver
[10] = read-out: Biodistribution, Lung
[11] = read-out: Biodistribution, Muscle
[12] = read-out: Biodistribution, Pancreas
[13] = read-out: Biodistribution, Spleen
[14] = read-out: Biodistribution, Stomach

Compound | tissue uptake at 24 h [1, 2] [%ID/g] | tissue uptake at 24 h [1, 3] [%ID/g] | tissue uptake at 24 h [1, 4] [%ID/g] | tissue uptake at 24 h [1, 5] [%ID/g] | tissue uptake at 24 h [1, 6] [%ID/g] | tissue uptake at 24 h [1, 7] [%ID/g] | tissue uptake at 24 h [1, 8] [%ID/g] | tissue uptake at 24 h [1, 9] [%ID/g] | tissue uptake at 24 h [1, 10] [%ID/g] | tissue uptake at 24 h [1, 11] [%ID/g] | tissue uptake at 24 h [1, 12] [%ID/g] | tissue uptake at 24 h [1, 13] [%ID/g] | tissue uptake at 24 h [1, 14] [%ID/g] | IC50 (CCK-2R) [µM] | IC50 (CCK-2R; listed as [^natLu]Lu-CP04, read-out: IC50) [µM] | IC50 (CCK-2R; read-out: IC50) [µM]
CCCC[C@H](NC(=O)[C@H](Cc1c[nH]c2ccccc12)NC(=O)CNC(=O)[C@H](Cc1ccc(O)cc1)NC(=O)[C@H](C)NC(=O)[C@@H](CCC(=O)O)NC(=O)[C@@H](CCC(=O)O)NC(=O)[C@@H](CCC(=O)O)NC(=O)[C@@H](CCC(=O)O)NC(=O)[C@@H](CCC(=O)O)NC(=O)[C@@H](CCC(=O)O)NC(=O)[C@@H](CCC(=O)O)NC(=O)[C@@H](CCC(=O)O)NC(=O)[C@@H](CNC(=O)c1ccc([Si](F)(C(C)(C)C)C(C)(C)C)cc1)NC(=O)CC[C@H](C(=O)O)N1CCN(CC(=O)O)CCN(CC(=O)O)CCN(CC(=O)O)CC1)C(=O)N[C@@H](CC(=O)O)C(=O)N[C@@H](Cc1ccccc1)C(N)=O [[nat/177Lu]Lu-(R)-DOTAGA-rhCCK-9, metal not drawn] (X1-[dDap](Benzoyl(4-SiFtBu2))[dE][dE][dE][dE][dE][dE][dE][dE]AYGW[Nle]DF-NH2) | 6.4 ± 1.48 | 0.45 ± 0.3 | 0.02 | 0.82 ± 0.42 | 0.09 ± 0.03 | 0.26 ± 0.04 | 84.4 ± 22.7 | 1.07 ± 0.54 | 0.1 ± 0.05 | 0.03 ± 0.01 | 0.31 ± 0.2 | 0.7 ± 0.69 | 1.8 ± 0.37 | 0.0553 ± 0.0078 |  | 
CCCC[C@H](NC(=O)[C@H](Cc1c[nH]c2ccccc12)NC(=O)CNC(=O)[C@H](Cc1ccc(O)cc1)NC(=O)[C@H](C)NC(=O)CC[C@@H](NC(=O)CC[C@@H](NC(=O)CC[C@@H](NC(=O)CC[C@@H](NC(=O)CC[C@@H](NC(=O)CC[C@@H](NC(=O)[C@@H](CNC(=O)c1ccc([Si](F)(C(C)(C)C)C(C)(C)C)cc1)NC(=O)CC[C@H](C(=O)O)N1CCN(CC(=O)O)CCN(CC(=O)O)CCN(CC(=O)O)CC1)C(=O)O)C(=O)O)C(=O)O)C(=O)O)C(=O)O)C(=O)O)C(=O)N[C@@H](CC(=O)O)C(=O)N[C@@H](Cc1ccccc1)C(N)=O [[nat/177Lu]Lu-(R)-DOTAGA-rhCCK-16, metal not drawn] | 15.7 ± 3.3 | 1.49 ± 1.5 | 0.01 | 0.17 ± 0.02 | 0.11 ± 0.01 | 0.2 ± 0.04 | 85.5 ± 11.3 | 1.18 ± 0.27 | 0.09 ± 0.02 | 0.05 ± 0.01 | 0.39 ± 0.12 | 0.62 ± 0.03 | 3.51 ± 0.5 | 0.0204 ± 0.0027 |  | 
CSCC[C@H](NC(=O)[C@H](Cc1c[nH]c2ccccc12)NC(=O)CNC(=O)[C@H](Cc1ccc(O)cc1)NC(=O)[C@H](C)NC(=O)[C@@H](CCC(=O)O)NC(=O)[C@@H](CCC(=O)O)NC(=O)[C@@H](CCC(=O)O)NC(=O)[C@@H](CCC(=O)O)NC(=O)[C@@H](CCC(=O)O)NC(=O)[C@@H](CCC(=O)O)NC(=O)CN1CCN(CC(=O)O)CCN(CC(=O)O)CCN(CC(=O)O)CC1)C(=O)N[C@@H](CC(=O)O)C(=O)N[C@@H](Cc1ccccc1)C(N)=O [[nat/177Lu]Lu-CP04, metal not drawn, reference compound] |  |  |  |  |  |  |  |  |  |  |  |  |  |  | 0.011 to 0.013 | 
CCCC[C@H](NC(=O)[C@H](Cc1c[nH]c2ccccc12)NC(=O)CNC(=O)[C@H](Cc1ccc(O)cc1)NC(=O)[C@H](C)NC(=O)[C@@H](CCC(=O)O)NC(=O)[C@@H](CCC(=O)O)NC(=O)[C@@H](CCC(=O)O)NC(=O)[C@@H](CCC(=O)O)NC(=O)[C@@H](CCC(=O)O)NC(=O)[C@@H](CCC(=O)O)NC(=O)CN1CCN(CC(=O)O)CCN(CC(=O)O)CCN(CC(=O)O)CC1)C(=O)N[C@@H](CC(=O)O)C(=O)N[C@@H](Cc1ccccc1)C(N)=O [[nat/177Lu]Lu-DOTA-PP-F11N, metal not drawn, reference compound] | 1.88 ± 0.82 | 0.03 ± 0.03 |  | 0.03 ± 0.01 |  | 0.04 ± 0.02 | 3.08 ± 0.51 | 0.67 ± 0.64 |  |  | 0.05 ± 0.01 | 0.07 ± 0.03 | 0.36 ± 0.05 |  |  | 0.011 to 0.013
